In patent US20220347187A1, “HETEROCYCLIC COMPOUNDS AS KINASE INHIBITORS” (Nuvation Bio Inc., priority 2019, published 2022):

What was measured:
DU4475 = assay: Cancer cell proliferation assay as a single agent (cell viability); format: cell-based; settings: Homo sapiens, DU-4475; Table 4; Rb negative breast carcinoma; 144H treatment
Procedure: (§1) The effects of test compounds were studied in two breast cancer cell lines of different subtype. The cancer cells (Table 3) were harvested during the logarithmic growth period and counted. Cell concentrations were adjusted to the appropriate number with respective medium and 90 μL cell suspensions were added to 96-well plates. After cells were seeded, the plates were shaken gently to distribute cells evenly and incubated at 37° C., 5% CO2 on day 1.
(§2) Cells were treated with test compounds at 7 to 9 concentrations within a desired concentration range (e.g. 1.1 nM-10 μM) on day 2 by series diluting the test compound stock solution (10 mM in DMSO) with culture medium. Treatment duration was 144H (with a medium change at 72H) for both MCF-7 and DU4475 cells. Cell viability was assessed by Cell Titer-Glo® as recommended by Promega (Cat. No.: G7572), or by resazurin assay (Sigma Aldrich, Cat. No.: R7017) post treatment.
(§3) Cell viability data were plotted using GraphPad Prism (GraphPad Software, Inc., San Diego, Calif.). In addition, a nonlinear regression model with a sigmoidal dose response and variable slope within GraphPad Prism was used to calculate the IC50 value of individual test compounds.

MCF-7 = assay: as above; format: cell-based; settings: Homo sapiens, MCF7
Procedure: as §1, §2, §3

CDK4 = molecular target: T1, CDK4 (Homo sapiens, UniProt P11802); assay: In vitro kinase inhibition, luminescence (ADP-Glo) with retinoblastoma as substrate; format: biochemical; settings: ATP 25 μM, 2H at room temperature
T1 construct: purchased Invitrogen PR8064 A
Procedure: (§4) IC50 values of compounds against CDK4 and CDK6 were determined by luminescence using retinoblastoma as substrate. Kinase assays were performed in kinase buffer (#PV6135, Invitrogen, Life Technologies Grand Island. N.Y.) where total reaction volume was […] in 96-well half area white plates (#3693, Costar). One microliter of 25× test compounds at specific concentrations (e.g., final concentration range: 0.1 nM-200 nM) was mixed with 10 μL of 2.5× kinase (5 nM, CDK4 #PR8064 A and CDK6 #PR8422B, Invitrogen) solution and 14 μL of 4× mixed solution with retinoblastoma (1 μM, #12-439, EMD Millipore. Hayward, Calif.) and ATP (25 μM, #V7038, Promega, Madison, Wis.). The plates were covered and incubated for 2H at room temperature. At the end of incubation, 25 μL of stop solution—ADP Glo reagent (#V7002. Promega) was added. After incubation for 45 min at room temperature, 50 μL of detection reagent (##V7002, Promega) was added. Readings were taken at 15 min and 45 min incubation after detection reagent was added in a Synergy Neo Plate reader (BioTek, Winooski, Vt.) at single excitation of 340 nm and Dual emission at 495 nm and 520 nm respectively. The following equations were used in the CDK4 and CDK6 assay data analysis. Percent inhibition (100-% activity) was fitted to the “four-parameter logistic model” in XLfit for determination of IC50 values.
(§5) Percent conversion of enzyme=100−{(RLUNo Drug−No enzyme*100)/RLUNo drug+Enzyme} Equation 1:
(§6) Percent conversion at each data point=100−{(RLUAverage(Drug+enzyme)*100)/RLUNo drug+Enzyme} Equation 2:
(§7) Percent Inhibition=100*(% Conversioneach data point/% ConversionEnzyme) Equation 3: […]

CDK6 = molecular target: T2, CDK6 (Homo sapiens, UniProt Q00534); assay: as above; format: biochemical; settings: ATP 25 μM, 2H at room temperature
T2 construct: purchased Invitrogen PR8422B
Procedure: as §4, §5, §6, §7

PI3Kδ = molecular target: T3, PI3Kδ (Homo sapiens, UniProt O00329); assay: PI3Kδ kinase assay (ADP-Glo, Reaction Biology Corporation); format: biochemical
T3 construct: purchased Reaction Biology Corporation (service assay)
Procedure: IC50 values of compounds against the PI3KS kinase were determined by an assay performed by Reaction Biology Corporation (Malvern, Pa.). Briefly, this assay was conducted in buffer (Tris-HCl 40 mM (pH7.5), Orthovanadate 3 mM, MgCl2 20 mM, DTT 2 mM, CHAPS 0.05%, DMSO 1%). PI3K8 kinase was added to the reaction solution and mixed gently. The test compounds in 100% DMSO (at specific solutions) were mixed with the kinase reaction mixture to achieve the final compounds at pre-defined concentrations (e.g., range—0.5 nM to 100 μM) by Acoustic technology (Echo550; nanoliter range). After incubating for 10 min at room temp, ATP was added into the reaction mixture to initiate the reaction followed by a 30-min incubation at 30° C. After quenching the reaction with ADP-Glo reagent, the plates were incubated for 40 min. The Detection Mixture was added, and the plate was incubated for an additional 30 min. At the end of incubation, luminescence was measured. For data analysis, the luminescence was converted into μM ADP production based on ADP standard curves. The nonlinear regression to obtain the standard curve and IC50 values was performed using GraphPad Prism (GraphPad Software. Inc., San Diego, Calif.).

CDK2 (cyclin A) = molecular target: T4, CDK2 (cyclin A) (Homo sapiens, UniProt P24941); assay: Z'-LYTE kinase assay; format: biochemical; settings: ATP 31 μM, 60 minutes
T4 construct: purchased Invitrogen Life Technologies (screening service)
Procedure: IC50 values of compounds against CDK2 (cyclin A) were determined by Z′-LYTE™. These screening assays were performed at Invitrogen Life Technologies (Grand Island, N.Y.) on a low volume NBS, black 384-well plate (#4514. Corning), 0.1 μL of 100× test compound in 100% DMSO (at specific solutions) was mixed with 2.4 μL of Kinase Buffer (50 mM HEPES pH 7.5, 0.01% BRIJ-35, 10 mM MgCl2, 1 mM EGTA), 5 μL of 2× Kinase (1.22-10.3 ng CDK2/cyclin A)/Peptide (2 μM Ser/Thr 12), and 2.5 μL of 4×ATP solution (31 μM). The plates were shaken for 30 seconds, and incubated for 60 minutes at room temperature. Development Reagent Solution (5 μL of 1:1024 dilution) was added to the plates followed with another 30-second plate shake and the plates were further incubated at room temperature for one hour. The plates were read on fluorescence plate reader with Dual emission at 445 nm and 520 nm.
(§8) The following equations were used for Z′-LYTE™ Screening Assay Data Analysis. Percent inhibition (100-% activity) was fitted to the “four-parameter logistic model” in XLfit for determination of IC50 values.

CDK1 (cyclin B) = molecular target: T5, CDK1 (cyclin B) (Homo sapiens, UniProt P06493); assay: Z'-LYTE kinase assay; format: biochemical; settings: ATP 34 μM, 60 minutes
T5 construct: purchased Invitrogen Life Technologies (screening service)
Procedure: IC50 values of compounds against CDK1 (cyclin B) were determined by Z′-LYTE™. These screening assays were performed at Invitrogen Life Technologies (Grand Island, N.Y.) on a low volume NBS, black 384-well plate (#4514, Corning), 0.1 μL of 100× test compound in 100% DMSO (at specific solutions) was mixed with 2.4 μL of Kinase Buffer (50 mM HEPES pH 7.5, 0.01% BRIJ-35, 10 mM MgCl2, 1 mM EGTA), 5 μL of 2× Kinase (3.5-46.4 ng CDK1/cyclin B)/Peptide (2 μM Ser/Thr 18), and 2.5 μL of 4×ATP solution (34 μM). The plates were shaken for 30 seconds, and incubated for 60 minutes at room temperature. Development Reagent Solution (5 μL of 1:1024 dilution) was added to the plates followed with another 30-second plate shake, and the plates were further incubated at room temperature for one hour. The plates were read on fluorescence plate reader with Dual emission at 445 nm and 520 nm.
as §8

MCF-7-PR = assay: Cell viability in palbociclib-resistant cell line; format: cell-based
Procedure: as §2, §3
The effects of test compound in a palbociclib-resistant cell line and a parental, non-resistant cell line were compared. The palbociclib-resistant cell line (“MCF-7-PR”) was derived from the parental, non-resistant cell line (MCF-7 breast adenocarcinoma cells) by culture of cells over a period of three months in increasing concentrations of palbociclib, starting from about 350 nM and ending at about 850 nM, the final concentration at which they were then maintained in culture. […]

[1] = Table 4, Rb positive breast adenocarcinoma, 144H treatment

T3 sequence (O00329 whole entry): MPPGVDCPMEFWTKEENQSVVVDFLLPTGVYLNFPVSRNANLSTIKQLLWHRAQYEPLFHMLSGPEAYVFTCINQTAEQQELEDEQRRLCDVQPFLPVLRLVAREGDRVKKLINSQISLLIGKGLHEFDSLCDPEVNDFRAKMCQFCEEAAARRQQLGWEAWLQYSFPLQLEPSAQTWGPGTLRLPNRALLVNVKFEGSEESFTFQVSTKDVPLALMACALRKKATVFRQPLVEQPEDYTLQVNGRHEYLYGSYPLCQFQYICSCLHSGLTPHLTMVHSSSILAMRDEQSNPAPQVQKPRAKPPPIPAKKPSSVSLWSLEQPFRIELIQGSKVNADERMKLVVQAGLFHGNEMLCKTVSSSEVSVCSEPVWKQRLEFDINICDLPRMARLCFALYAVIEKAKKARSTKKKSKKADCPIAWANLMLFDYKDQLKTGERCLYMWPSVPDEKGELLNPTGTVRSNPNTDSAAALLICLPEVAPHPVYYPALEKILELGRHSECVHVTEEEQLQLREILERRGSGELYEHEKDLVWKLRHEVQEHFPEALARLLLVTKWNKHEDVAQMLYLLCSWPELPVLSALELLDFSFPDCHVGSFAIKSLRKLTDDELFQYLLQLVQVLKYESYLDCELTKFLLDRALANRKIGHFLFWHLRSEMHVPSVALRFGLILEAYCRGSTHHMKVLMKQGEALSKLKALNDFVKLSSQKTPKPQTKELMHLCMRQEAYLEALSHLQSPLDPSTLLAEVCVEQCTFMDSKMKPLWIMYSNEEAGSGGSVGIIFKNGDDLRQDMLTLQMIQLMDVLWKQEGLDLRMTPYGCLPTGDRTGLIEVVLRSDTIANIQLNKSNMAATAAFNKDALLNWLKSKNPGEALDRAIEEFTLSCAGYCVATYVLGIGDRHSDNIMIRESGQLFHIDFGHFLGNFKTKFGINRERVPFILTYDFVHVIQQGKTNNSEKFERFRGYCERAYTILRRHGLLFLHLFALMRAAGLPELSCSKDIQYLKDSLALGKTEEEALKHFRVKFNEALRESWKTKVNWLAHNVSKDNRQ
T3 sequence (P27986 whole entry partner): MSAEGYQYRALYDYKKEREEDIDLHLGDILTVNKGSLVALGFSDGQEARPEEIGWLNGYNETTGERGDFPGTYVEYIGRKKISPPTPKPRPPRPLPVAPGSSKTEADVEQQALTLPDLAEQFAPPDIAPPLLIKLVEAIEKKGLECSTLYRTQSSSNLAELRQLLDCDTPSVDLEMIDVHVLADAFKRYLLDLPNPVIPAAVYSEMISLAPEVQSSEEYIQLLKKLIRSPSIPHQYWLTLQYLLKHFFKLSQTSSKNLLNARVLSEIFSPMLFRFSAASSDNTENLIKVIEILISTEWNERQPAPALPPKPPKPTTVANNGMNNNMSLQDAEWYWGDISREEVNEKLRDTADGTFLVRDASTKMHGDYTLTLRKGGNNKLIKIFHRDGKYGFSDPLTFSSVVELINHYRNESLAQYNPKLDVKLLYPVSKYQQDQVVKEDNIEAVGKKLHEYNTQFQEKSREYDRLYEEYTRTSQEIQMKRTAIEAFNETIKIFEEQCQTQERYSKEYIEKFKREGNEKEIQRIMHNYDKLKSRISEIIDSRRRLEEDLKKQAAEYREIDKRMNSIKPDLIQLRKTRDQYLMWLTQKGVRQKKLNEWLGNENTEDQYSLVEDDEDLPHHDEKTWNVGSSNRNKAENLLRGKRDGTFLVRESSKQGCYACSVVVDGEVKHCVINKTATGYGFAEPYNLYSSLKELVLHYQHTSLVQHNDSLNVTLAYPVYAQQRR
T2 sequence (Q00534 whole entry): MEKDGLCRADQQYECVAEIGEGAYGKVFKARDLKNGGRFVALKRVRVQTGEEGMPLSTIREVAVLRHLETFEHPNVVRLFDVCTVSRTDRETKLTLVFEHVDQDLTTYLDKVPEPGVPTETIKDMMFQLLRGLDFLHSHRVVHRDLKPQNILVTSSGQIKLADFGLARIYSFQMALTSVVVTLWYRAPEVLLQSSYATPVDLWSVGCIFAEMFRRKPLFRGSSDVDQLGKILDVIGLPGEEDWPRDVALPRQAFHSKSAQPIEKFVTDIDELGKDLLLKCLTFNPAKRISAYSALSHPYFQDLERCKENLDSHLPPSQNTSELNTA
T2 sequence (P24385 whole entry partner): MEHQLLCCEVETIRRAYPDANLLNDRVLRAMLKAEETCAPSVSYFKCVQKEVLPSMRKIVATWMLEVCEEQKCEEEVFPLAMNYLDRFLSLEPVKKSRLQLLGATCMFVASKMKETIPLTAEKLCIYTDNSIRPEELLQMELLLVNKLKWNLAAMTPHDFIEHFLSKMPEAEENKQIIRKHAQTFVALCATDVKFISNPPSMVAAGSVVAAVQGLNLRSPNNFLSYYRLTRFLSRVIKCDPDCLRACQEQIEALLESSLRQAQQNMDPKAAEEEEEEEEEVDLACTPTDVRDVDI
T5 sequence (P06493 whole entry): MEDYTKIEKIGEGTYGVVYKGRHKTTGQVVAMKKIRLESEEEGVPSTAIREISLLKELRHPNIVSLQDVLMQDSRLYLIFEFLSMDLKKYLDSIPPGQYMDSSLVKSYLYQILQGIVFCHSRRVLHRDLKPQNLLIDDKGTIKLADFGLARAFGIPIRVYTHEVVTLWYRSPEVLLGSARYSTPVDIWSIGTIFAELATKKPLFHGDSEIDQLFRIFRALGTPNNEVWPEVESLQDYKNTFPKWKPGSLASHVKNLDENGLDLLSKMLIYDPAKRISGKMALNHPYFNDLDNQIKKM
T5 sequence (P14635 whole entry partner): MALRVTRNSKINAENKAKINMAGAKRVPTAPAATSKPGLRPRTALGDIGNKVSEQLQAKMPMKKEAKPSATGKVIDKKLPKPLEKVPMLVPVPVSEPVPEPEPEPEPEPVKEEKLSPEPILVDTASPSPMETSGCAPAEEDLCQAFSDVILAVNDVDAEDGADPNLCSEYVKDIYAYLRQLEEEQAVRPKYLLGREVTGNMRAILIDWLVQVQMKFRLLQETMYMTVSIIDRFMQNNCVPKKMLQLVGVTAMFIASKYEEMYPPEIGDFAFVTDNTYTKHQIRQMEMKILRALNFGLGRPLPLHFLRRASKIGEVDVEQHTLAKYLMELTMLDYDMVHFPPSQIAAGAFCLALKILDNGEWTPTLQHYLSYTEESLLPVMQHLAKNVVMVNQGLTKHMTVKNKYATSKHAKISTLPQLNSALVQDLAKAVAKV
T1 sequence (P11802 whole entry): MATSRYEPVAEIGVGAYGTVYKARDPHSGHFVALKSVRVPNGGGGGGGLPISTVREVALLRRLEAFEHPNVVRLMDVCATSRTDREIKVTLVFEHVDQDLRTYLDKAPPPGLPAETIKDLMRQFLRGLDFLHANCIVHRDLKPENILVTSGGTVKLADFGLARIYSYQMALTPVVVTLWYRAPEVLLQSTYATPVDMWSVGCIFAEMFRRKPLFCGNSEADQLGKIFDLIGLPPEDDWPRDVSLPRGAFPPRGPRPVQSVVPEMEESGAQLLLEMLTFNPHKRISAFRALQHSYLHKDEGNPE
T1 sequence (P24385 whole entry partner): as the sequence (P24385 whole entry partner) above

Structure (SMILES)	IC50 (DU4475)	IC50 (MCF-7; [1])	IC50 (CDK4)	IC50 (CDK6)	IC50 (PI3Kδ)	IC50 (CDK2 (cyclin A))	IC50 (CDK1 (cyclin B))	IC50 (MCF-7-PR; Table 5, palbociclib-resistant cell line)	IC50 (MCF-7; Table 5, parental, non-resistant cell line)	resistance to palbociclib compared to parental MCF-7 cells, as increase in cell viability IC50 (MCF-7-PR; MCF-7-PR vs MCF-7)
CC(C)N1CCOc2c(F)cc(-c3nc(Nc4cccc(N5CCCNCC5)c4)ncc3F)cc21 [Compound 1, N-(3-(1,4-diazepan-1-yl)phenyl)-5-fluoro-4-(8-fluoro-4-isopropyl-3,4-dihydro-2H-benzo[b][1,4]oxazin-6-yl)pyrimidin-2-amine]	285 nM	252 nM	40 nM	53 nM						
CC(C)N1CCOc2c(F)cc(-c3nc(Nc4cc(N5CCCNCC5)ccn4)ncc3F)cc21 [Compound 2, N-(4-(1,4-diazepan-1-yl)pyridin-2-yl)-5-fluoro-4-(8-fluoro-4-isopropyl-3,4-dihydro-2H-benzo[b][1,4]oxazin-6-yl)pyrimidin-2-amine]	1640 nM	823 nM	> 200 nM	> 200 nM	> 50000 nM	1230 nM	2800 nM			
CCN1CCC(COc2ccc(Nc3ncc(F)c(-c4cc(F)c5c(c4)N(C(C)C)CCO5)n3)nc2)CC1 [Compound 3, N-(5-((1-ethylpiperidin-4-yl)methoxy)pyridin-2-yl)-5-fluoro-4-(8-fluoro-4-isopropyl-3,4-dihydro-2H-benzo[b][1,4]oxazin-6-yl)pyrimidin-2-amine]	655 nM	60 nM	5 nM	6.5 nM	> 50000 nM	207 nM	1490 nM			
CCN1CCC(COc2ccc(Nc3cc(-c4cc(F)c5c(c4)N(C(C)C)CCO5)c(F)cn3)nc2)CC1 [Compound 4, N-(5-((1-ethylpiperidin-4-yl)methoxy)pyridin-2-yl)-5-fluoro-4-(8-fluoro-4-isopropyl-3,4-dihydro-2H-benzo[b][1,4]oxazin-6-yl)pyridin-2-amine]	275 nM	215 nM	7 nM	12 nM	> 30200 nM	75 nM	200 nM			
CC(=O)c1c(C)c2cnc(Nc3ccc(N4CCNCC4)cn3)nc2n(C2CCCC2)c1=O [palbociclib, reference compound]										at least 5 fold

More lines, main results first:

IC50 (DU4475)	IC50 (MCF-7; [1])	IC50 (CDK4)	IC50 (CDK6)	IC50 (PI3Kδ)	IC50 (CDK2 (cyclin A))	IC50 (CDK1 (cyclin B))	IC50 (MCF-7-PR; Table 5, palbociclib-resistant cell line)	Structure (SMILES)	IC50 (MCF-7; Table 5, parental, non-resistant cell line)	resistance to palbociclib compared to parental MCF-7 cells, as increase in cell viability IC50 (MCF-7-PR; MCF-7-PR vs MCF-7)
230 nM	525 nM	2 nM	9 nM	> 36600 nM	< 1 nM	< 1 nM		CC(C)N1CCOc2c(F)cc(-c3nc(NC4CCN(S(C)(=O)=O)CC4)ncc3F)cc21 [Compound 5, 5-fluoro-4-(8-fluoro-4-isopropyl-3,4-dihydro-2H-benzo[b][1,4]oxazin-6-yl)-N-(1-(methylsulfonyl)piperidin-4-yl)pyrimidin-2-amine]		
130 nM	80 nM	16 nM	45 nM		45 nM	94 nM	72 nM	Cc1nn(C2CCNCC2)cc1Nc1ncc(F)c(-c2cc(F)c3c(c2)N(C(C)C)CCO3)n1 [Compound 67, 5-fluoro-4-(8-fluoro-4-isopropyl-3,4-dihydro-2H-benzo[b][1,4]oxazin-6-yl)-N-(3-methyl-1-(piperidin-4-yl)-1H-pyrazol-4-yl)pyrimidin-2-amine]	40 nM	
3610 nM	392 nM	10 nM	26 nM		2470 nM	4550 nM		CC(C)N1CCOc2c(F)cc(-c3nc(Nc4ccc(N5CCNC(=O)C5)cn4)ncc3F)cc21 [Compound 85, 4-(6-((5-fluoro-4-(8-fluoro-4-isopropyl-3,4-dihydro-2H-benzo[b][1,4]oxazin-6-yl)pyrimidin-2-yl)amino)pyridin-3-yl)piperazin-2-one]		
1140 nM	160 nM	1 nM	3 nM		278 nM	1480 nM		CC(C)N1CCOc2c(F)cc(-c3nc(Nc4ccc(N5CCN(C)C(=O)C5)cn4)ncc3F)cc21 [Compound 86, 4-(6-((5-fluoro-4-(8-fluoro-4-isopropyl-3,4-dihydro-2H-benzo[b][1,4]oxazin-6-yl)pyrimidin-2-yl)amino)pyridin-3-yl)-1-methylpiperazin-2-one]		
